Tests used:
[1] = system: NCI 60 cancer cell line panel; experiment: NCI-60 DTP Human Tumor Cell Line Panel, SRB growth inhibition; type: cell-based; details: cell lines from the NCI 60 panel
Method: The human tumor cell lines of the cancer screening panel are grown in RPMI 1640 medium containing 5% fetal bovine serum and 2 mM L-glutamine. For a typical screening experiment, cells are inoculated into 96 well microtiter plates in 100 μL at plating densities ranging from 5,000 to 40,000 cells/well depending on the doubling time of individual cell lines. After cell inoculation, the microtiter plates are incubated at 37° C., 5% CO2, 95% air and 100% relative humidity for 24 h prior to addition of experimental drugs.
After 24 h, two plates of each cell line are fixed in situ with TCA, to represent a measurement of the cell population for each cell line at the time of drug addition (Tz). Experimental drugs are solubilized in dimethyl sulfoxide at 400-fold the desired final maximum test concentration and stored frozen prior to use. At the time of drug addition, an aliquot of frozen concentrate is thawed and diluted to twice the desired final maximum test concentration with complete medium containing 50 μg/ml gentamicin. Additional four, 10-fold or ½ log serial dilutions are made to provide a total of five drug concentrations plus control. Aliquots of 100 μl of these different drug dilutions are added to the appropriate microtiter wells already containing 100 μl of medium, resulting in the required final drug concentrations.
Following drug addition, the plates are incubated for an additional 48 h at 37° C., 5% CO2, 95% air, and 100% relative humidity. For adherent cells, the assay is terminated by the addition of cold TCA. Cells are fixed in situ by the gentle addition of 50 μl of cold 50% (w/v) TCA (final concentration, 10% TCA) and incubated for 60 minutes at 4° C. The supernatant is discarded, and the plates are washed five times with tap water and air dried. Sulforhodamine B (SRB) solution (100 μl) at 0.4% (w/v) in 1% acetic acid is added to each well, and plates are incubated for 10 minutes at room temperature. After staining, unbound dye is removed by washing five times with 1% acetic acid and the plates are air dried. Bound stain is subsequently solubilized with 10 mM trizma base, and the absorbance is read on an automated plate reader at a wavelength of 515 nm. For suspension cells, the methodology is the same except that the assay is terminated by fixing settled cells at the bottom of the wells by gently adding 50 μl of 80% TCA (final concentration, 16% TCA). Using the seven absorbance measurements [time zero, (Tz), control growth, (C), and test growth in the presence of drug at the five concentration levels (Ti)], the percentage growth is calculated at each of the drug concentrations levels. Percentage growth inhibition is calculated as: [(Ti−Tz)/(C−Tz)]×100 for concentrations for which Ti>/=Tz [(Ti−Tz)/Tz]×100 for concentrations for which Ti<Tz.
Three dose response parameters are calculated for each experimental agent.

[2] = system: human MV411 human acute myelogenous leukemia (AML) xenograft; experiment: AML xenograft model in female SCID mice; type: in vivo, mouse
Method: The objective of the first study was to evaluate antitumor activities of the novel multiple-kinase inhibitor NTW-3475 against human MV411 human acute myelogenous leukemia (AML) xenograft model in female SCID mice.
Four or six animals were randomly assigned to each study group. Each animal was injected subcutaneously in the left and right flank area with 0.1 ml of 1.0×10^8 MV411 cells per mL.
(§1) Each test or control animal was placed on a 5-day on, two-day off for two cycles of vehicle negative control or 25, 50 mg/kg of NTW-3475. Tumor growth was measured with a digital hand held caliper twice weekly (once tumor emerges) prior to the first dosing and then two to three times weekly until euthanized. Animals were weighed prior to tumor cell injection, prior to dosing, two to three times weekly with tumor growth measurements, and prior to euthanasia.
The objective of the first study was to evaluate antitumor activities of the novel multiple-kinase inhibitor Compounds 11, 68, and 82 against human MV411 human acute myelogenous leukemia (AML) xenograft model in female SCID mice.
as §1, with “compound.” for “NTW-3475.”

[3] = system: human K562 chronic myelogenous leukemia (CML) xenograft; experiment: CML xenograft model in female SCID mice; type: in vivo, mouse
Method: The objective of the second study was to evaluate antitumor activities of novel multiple-kinase inhibitor NTW-3475 in human K562 chronic myelogenous leukemia (CML) xenograft model in female SCID mice.
Four to six animals were randomly assigned to study groups. Each animal was weighed, and then injected subcutaneously in the left and right flank area with 0.1 ml of 8.0×10^7 K562 cells per mL.
as §1, with “was” for “was placed”, “treatment schedule.” for “of vehicle negative control or 25, 50 mg/kg of NTW-3475.”
This example illustrated antitumor activities of Compound 10 and 11 in human K562 chronic myelogenous leukemia (CML) xenograft model in female SCID mice.
On the appropriate days, each animal in an appropriate group will receive a specific amount of test article either at 75 or 100 mg/kg, and the dosing volume is 10 ml/kg by oral gavage as indicated. Dosing schedule will be once daily for 10 days (qd×10, 5 days on and 2 days off for 2 cycles).

[4] = system: human MIAPaCa-2 pancreatic carcinoma xenograft; experiment: Pancreatic carcinoma xenograft in athymic nude mice; type: in vivo, mouse; details: MIAPaCa-2 xenograft; for anti-tumor effect: nude mice, single agent
Method: The objective of the third study was to evaluate antitumor activities of novel multiple-kinase inhibitor NTW-3475 in human MIAPaCa-2 pancreatic carcinoma xenograft in athymic nude-Faxn1 mice.
Four animals were randomly assigned to study groups. Each animal was weighed, and then injected subcutaneously in the left and right flank area with 0.1 ml of 5.0×10^7 MIAPaCa-2 cells per mL.
Each test or control animal was on a 5-day on, two-day off for two cycles treatment schedule with negative control vehicle, positive control Abraxane at 20 mg/kg or 25, 50 mg/kg of NTW-3475. Tumor growth was measured with a digital hand held caliper twice weekly (once tumor emerges) prior to the first dosing and then two to three times weekly until euthanized.
The objective of the third study was to evaluate antitumor activities of novel multiple-kinase inhibitor Compound 10, 11, 12, 53, 68, 82, 83, 88, and 90 in human MIAPaCa-2 pancreatic carcinoma xenograft in athymic nude-Faxn1 mice.
Each test or control animal was on a 5-day on, two-day off for three cycles treatment schedule with negative control vehicle or 40 mg/kg of Compound 10, 11, 12, 53, 68, 82, 83, 88 and 90. Tumor growth was measured with a digital hand held caliper twice weekly (once tumor emerges) prior to the first dosing and then two to three times weekly until euthanized.

[5] = system: TT human Thyroid carcinoma xenograft; experiment: Thyroid carcinoma xenograft; type: in vivo, mouse
Method: This example assesses Compound 10, 53 and 88's anti-tumor activity using a SCID mouse xenograft models for TT human Thyroid carcinoma xenograft (FIGS. 65 to 69.)
On the appropriate days, each animal in an appropriate group will receive a specific amount of Compound 10 either at 50 or 100 mg/kg, and the dosing volume is 10 ml/kg by oral gavage as indicated. Dosing schedule will be once daily for 30 days.
On the appropriate days, each animal in an appropriate group will receive a specific amount of Compound 53 either at 50 or 100 mg/kg, and the dosing volume is 10 ml/kg by oral gavage as indicated. Dosing schedule will be once daily for 30 days.
Dosing schedule will be once daily for 30 days.

[6] = system: AN3 human endometrial carcinoma xenograft; experiment: Endometrial carcinoma xenograft; type: in vivo, mouse
Abl(h) = Abl(h) (Homo sapiens, UniProt P00519); experiment: KinaseProfiler kinase assay; type: biochemical
Aurora-A(h) = biological target: T1, Aurora-A(h) (Homo sapiens, UniProt O14965); experiment: KinaseProfiler kinase assay; type: biochemical; details: read-out: % Inhibition @1 μM Auroro-A
T1 sequence (O14965 1-403): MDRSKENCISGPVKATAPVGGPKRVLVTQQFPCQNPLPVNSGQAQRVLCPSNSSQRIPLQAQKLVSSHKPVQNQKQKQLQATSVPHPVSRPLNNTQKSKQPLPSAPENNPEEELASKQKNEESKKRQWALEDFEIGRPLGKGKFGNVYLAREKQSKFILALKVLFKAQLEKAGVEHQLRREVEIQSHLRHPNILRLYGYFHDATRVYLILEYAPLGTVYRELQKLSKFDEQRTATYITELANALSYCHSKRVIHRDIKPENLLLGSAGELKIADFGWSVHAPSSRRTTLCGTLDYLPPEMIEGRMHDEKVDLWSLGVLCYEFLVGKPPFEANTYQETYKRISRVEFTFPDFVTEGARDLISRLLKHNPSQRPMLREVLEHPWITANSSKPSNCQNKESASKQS
How it was run: (§2)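 Steps: compound diluted from DMSO into MOPS/BSA assay buffer; MgATP mix with [γ-33P]ATP added to start; 40 min incubation at room temperature; phosphoric acid stop; filtermat spotting, washing in 50 mM phosphoric acid and methanol; scintillation counting.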

Flt3(h) = biological target: T2, Flt3(h) (Homo sapiens, UniProt P36888); experiment: KinaseProfiler kinase assay; type: biochemical
T2 sequence (P36888 27-993): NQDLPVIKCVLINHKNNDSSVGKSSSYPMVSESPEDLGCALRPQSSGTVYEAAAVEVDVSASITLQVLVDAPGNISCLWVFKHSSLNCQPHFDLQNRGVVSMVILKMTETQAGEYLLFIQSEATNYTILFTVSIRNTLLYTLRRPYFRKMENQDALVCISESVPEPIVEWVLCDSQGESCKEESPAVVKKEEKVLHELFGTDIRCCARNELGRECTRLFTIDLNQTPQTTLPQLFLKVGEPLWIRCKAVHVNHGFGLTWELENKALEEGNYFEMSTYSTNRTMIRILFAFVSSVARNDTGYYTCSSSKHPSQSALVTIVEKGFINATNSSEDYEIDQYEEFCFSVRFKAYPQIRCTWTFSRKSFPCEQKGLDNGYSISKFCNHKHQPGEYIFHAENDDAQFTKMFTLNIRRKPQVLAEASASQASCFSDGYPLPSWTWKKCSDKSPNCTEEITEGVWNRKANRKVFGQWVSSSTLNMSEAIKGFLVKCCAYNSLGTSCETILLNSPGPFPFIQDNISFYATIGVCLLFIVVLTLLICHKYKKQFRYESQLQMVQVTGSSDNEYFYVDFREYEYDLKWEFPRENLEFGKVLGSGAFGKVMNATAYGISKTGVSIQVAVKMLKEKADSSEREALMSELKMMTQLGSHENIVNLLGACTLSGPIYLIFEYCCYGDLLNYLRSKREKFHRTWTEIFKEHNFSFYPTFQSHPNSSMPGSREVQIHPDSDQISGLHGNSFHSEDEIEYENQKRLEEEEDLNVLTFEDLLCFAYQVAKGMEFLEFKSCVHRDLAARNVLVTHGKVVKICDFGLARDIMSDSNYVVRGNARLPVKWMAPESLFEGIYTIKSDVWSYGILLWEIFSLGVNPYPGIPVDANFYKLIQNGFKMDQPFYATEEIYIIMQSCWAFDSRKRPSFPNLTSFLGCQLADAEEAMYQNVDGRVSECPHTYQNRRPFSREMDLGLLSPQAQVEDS
How it was run: as §2

Ret(h) = Ret(h) (Homo sapiens, UniProt P07949); experiment: KinaseProfiler kinase assay; type: biochemical
How it was run: as §2

cSRC(h) = cSRC(h) (Homo sapiens, UniProt P12931); experiment: KinaseProfiler kinase assay; type: biochemical
How it was run: as §2

KDR(h) = KDR(h) (Homo sapiens, UniProt P35968); experiment: KinaseProfiler kinase assay; type: biochemical
AN3.CA = experiment: CellTiterBlue cell growth inhibition; type: cell-based; details: Homo sapiens, 72 hours
Method: (§3) This example illustrated the proliferating cell growth inhibition of selected compounds from this invention. To do this, the cells were seeded into fresh Iscove's growth medium at a density of 0.4e6 cells/ml and grown in log phase for 24 hr. Cells were then resuspended in their fresh respective growth media at 0.1e^6 cells/ml and plated into 384 well black, clear-bottom microplates at 36 ul/well. Test compounds and controls were initially dissolved in DMSO at the desired concentration, then serially diluted to the assay buffer. These solutions were added and cells were incubated for 72 hours at 37° C. CellTiterBlue (Promega cat# G7572) was added on the Beckman FX. Plates were returned to the 37° C. CO2 incubator for 4 hr and then fluorescence was determined on the Victor plate reader. Data were processed using Microsoft Excel, and GI50 values were generated using Prism (GraphPad Software, San Diego, Calif.).

K562 = experiment: CellTiterBlue cell growth inhibition; type: cell-based; details: Homo sapiens; K562, 72 hours
Method: as §3

KU812 = experiment: CellTiterBlue cell growth inhibition; type: cell-based; details: Homo sapiens; KU812, 72 hours
Method: as §3

MV4.11 = experiment: CellTiterBlue cell growth inhibition; type: cell-based; details: Homo sapiens; MV4.11, 72 hours
Method: as §3

RS4.11 = experiment: CellTiterBlue cell growth inhibition; type: cell-based; details: Homo sapiens; RS4.11, 72 hours
Method: as §3

TT = experiment: CellTiterBlue cell growth inhibition; type: cell-based; details: Homo sapiens, 72 hours
Method: as §3

KDR(h), sequence (P35968 20-1356): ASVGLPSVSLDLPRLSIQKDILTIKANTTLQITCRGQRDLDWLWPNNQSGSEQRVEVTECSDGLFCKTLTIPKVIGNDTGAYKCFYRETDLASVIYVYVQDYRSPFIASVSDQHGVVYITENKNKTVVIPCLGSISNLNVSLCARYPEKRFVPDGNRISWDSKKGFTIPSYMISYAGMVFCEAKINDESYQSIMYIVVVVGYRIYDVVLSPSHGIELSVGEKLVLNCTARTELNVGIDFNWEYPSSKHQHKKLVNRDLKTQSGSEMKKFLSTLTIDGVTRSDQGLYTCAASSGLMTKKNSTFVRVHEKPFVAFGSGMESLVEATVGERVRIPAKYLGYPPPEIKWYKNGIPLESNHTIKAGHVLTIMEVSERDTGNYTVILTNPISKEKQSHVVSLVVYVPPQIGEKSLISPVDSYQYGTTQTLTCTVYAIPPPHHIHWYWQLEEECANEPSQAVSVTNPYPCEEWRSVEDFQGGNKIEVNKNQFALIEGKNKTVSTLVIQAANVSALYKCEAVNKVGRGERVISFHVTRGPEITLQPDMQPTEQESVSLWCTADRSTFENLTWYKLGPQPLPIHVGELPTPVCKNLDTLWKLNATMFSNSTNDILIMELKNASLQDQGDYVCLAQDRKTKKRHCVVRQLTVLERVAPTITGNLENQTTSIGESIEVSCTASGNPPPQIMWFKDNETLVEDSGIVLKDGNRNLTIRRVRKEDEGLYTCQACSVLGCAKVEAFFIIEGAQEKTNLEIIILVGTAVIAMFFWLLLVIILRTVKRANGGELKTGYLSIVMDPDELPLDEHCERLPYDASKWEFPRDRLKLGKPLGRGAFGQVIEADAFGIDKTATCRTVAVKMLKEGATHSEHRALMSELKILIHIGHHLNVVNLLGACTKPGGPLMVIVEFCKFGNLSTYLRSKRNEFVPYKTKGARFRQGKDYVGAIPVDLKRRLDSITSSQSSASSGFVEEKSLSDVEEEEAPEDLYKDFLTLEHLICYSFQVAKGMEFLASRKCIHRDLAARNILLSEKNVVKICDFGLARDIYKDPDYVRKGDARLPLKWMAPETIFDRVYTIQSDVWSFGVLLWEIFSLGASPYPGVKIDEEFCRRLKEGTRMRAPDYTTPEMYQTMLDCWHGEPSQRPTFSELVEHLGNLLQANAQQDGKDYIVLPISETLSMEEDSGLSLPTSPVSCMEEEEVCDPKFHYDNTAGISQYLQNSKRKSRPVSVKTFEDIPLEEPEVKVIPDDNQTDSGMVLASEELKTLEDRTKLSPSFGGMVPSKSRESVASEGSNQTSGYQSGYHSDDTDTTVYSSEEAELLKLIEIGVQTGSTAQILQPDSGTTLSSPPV
Ret(h), sequence (P07949 29-1114): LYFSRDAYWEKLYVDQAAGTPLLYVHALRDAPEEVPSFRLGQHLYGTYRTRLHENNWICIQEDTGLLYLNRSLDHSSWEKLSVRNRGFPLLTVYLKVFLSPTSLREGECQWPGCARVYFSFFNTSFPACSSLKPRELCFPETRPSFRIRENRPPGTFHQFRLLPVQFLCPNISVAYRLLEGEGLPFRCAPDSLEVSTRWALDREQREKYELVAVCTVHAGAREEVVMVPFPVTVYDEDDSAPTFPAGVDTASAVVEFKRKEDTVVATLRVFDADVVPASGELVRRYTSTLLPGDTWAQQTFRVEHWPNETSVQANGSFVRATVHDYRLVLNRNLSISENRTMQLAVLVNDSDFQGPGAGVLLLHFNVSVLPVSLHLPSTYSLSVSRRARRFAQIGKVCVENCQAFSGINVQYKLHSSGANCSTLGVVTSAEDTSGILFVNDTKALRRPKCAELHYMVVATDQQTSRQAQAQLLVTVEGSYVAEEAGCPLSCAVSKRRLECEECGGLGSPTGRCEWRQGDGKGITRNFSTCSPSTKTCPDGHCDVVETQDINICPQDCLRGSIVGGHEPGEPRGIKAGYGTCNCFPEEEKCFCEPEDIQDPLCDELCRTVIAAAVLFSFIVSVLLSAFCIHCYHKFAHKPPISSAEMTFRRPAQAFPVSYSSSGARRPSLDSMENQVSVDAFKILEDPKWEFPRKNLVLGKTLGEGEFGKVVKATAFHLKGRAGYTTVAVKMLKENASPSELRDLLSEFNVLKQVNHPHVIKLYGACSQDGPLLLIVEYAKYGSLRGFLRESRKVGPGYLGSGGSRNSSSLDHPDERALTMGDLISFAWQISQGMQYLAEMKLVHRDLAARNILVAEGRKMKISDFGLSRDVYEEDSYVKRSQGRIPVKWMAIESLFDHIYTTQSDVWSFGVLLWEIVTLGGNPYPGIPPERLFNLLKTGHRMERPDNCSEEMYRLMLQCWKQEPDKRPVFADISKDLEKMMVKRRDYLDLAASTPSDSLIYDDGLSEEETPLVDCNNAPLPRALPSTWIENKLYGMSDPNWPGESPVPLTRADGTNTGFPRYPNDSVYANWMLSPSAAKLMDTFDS
cSRC(h), sequence (P12931 whole entry): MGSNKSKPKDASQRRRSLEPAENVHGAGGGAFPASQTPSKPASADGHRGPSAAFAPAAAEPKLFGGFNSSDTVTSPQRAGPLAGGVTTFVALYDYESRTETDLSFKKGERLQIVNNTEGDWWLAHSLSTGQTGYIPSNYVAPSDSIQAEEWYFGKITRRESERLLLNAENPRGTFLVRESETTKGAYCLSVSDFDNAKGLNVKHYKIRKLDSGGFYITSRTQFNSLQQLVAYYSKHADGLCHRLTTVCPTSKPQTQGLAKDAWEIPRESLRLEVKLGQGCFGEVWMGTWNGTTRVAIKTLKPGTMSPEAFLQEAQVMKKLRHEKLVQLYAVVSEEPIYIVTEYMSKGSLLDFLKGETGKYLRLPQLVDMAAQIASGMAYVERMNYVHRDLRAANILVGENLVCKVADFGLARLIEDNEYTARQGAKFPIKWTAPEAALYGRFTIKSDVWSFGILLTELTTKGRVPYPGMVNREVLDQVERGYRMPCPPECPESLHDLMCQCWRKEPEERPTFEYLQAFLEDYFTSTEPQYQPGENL
Abl(h), sequence (P00519 whole entry): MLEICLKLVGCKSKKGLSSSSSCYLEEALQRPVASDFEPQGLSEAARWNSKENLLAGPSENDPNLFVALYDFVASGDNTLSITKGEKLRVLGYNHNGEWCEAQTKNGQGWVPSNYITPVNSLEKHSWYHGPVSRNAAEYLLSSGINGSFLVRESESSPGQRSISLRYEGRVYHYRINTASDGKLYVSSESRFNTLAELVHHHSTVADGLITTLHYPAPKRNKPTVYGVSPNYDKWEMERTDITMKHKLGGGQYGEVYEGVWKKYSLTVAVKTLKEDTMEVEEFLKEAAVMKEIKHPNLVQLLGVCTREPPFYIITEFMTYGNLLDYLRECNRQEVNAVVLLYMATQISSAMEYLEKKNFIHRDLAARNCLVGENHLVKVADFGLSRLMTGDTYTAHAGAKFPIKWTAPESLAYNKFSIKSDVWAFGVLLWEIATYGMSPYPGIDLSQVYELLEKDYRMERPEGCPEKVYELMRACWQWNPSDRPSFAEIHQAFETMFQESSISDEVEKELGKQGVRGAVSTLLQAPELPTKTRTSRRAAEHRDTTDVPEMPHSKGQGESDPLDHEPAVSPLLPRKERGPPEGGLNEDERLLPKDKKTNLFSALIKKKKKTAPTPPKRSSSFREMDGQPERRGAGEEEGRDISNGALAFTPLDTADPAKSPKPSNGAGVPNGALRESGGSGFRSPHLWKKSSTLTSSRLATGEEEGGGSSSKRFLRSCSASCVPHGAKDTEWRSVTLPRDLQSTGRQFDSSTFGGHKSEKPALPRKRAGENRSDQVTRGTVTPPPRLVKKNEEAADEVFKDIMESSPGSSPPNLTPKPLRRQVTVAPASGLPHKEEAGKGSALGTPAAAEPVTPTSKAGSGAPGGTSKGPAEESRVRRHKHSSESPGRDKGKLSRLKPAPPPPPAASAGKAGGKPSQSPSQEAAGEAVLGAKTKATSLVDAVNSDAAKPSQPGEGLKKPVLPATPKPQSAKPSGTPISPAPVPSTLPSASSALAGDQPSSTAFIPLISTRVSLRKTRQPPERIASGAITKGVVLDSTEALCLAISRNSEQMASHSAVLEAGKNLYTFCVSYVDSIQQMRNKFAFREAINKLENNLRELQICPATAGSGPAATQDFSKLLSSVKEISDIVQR

SMILES	antiproliferative activity [1]	anti-tumor effect [2]	body weight change [2]	anti-tumor effect [3]	anti-tumor effect in combination with Abraxane ([4]; combination with Abraxane)	anti-tumor effect [4]	anti-tumor effect [5]	anti-tumor effect [6]	inhibition at 1 µM (Abl(h))	inhibition at 1 µM (Aurora-A(h))	inhibition at 1 µM (Flt3(h))	inhibition at 1 µM (Ret(h))	inhibition at 1 µM (cSRC(h))	inhibition at 1 µM (KDR(h))	GI50 (AN3.CA)	GI50 (K562)	GI50 (KU812)	GI50 (MV4.11)	GI50 (RS4.11)	GI50 (TT)
Cc1cc2c(F)c(Oc3nc(Nc4cc(C5CC5)[nH]n4)cc(N4CCN(C)CC4)n3)cc(F)c2[nH]1 [NTW-3475]	strong antiproliferative activity	strong anti-tumor effect	minimal body weight lost	strong anti-tumor effect	anti-tumor effect	strong anti-tumor effect	anti-tumor effect	anti-tumor effect	–	–	–	–	–	–	–	–	–	–	–	–
C/C=C/c1cc(Nc2cc(N3CCNCC3)nc(Oc3cc(F)c4[nH]c(C)cc4c3F)n2)n[nH]1 [Compound 90]	–	–	–	–	–	strong anti-tumor effect	–	–	112%	100%	100%	99%	101%	95%	2 nM	0.85 nM	0.9 nM	0.13 nM	5.07 nM	3.8 nM
